Read-outs that look alike come from different tables or passages of the source.
Legend:
PeAAO [1] = target: T1, PeAAO (Pleurotus eryngii, UniProt O94219); parameters: method as in Ferreira et al. (2023); settings: alcohol substrate 4-methoxybenzyl alcohol, 50 mM phosphate, pH 6.0, 25 °C, ref Ferreira et al. (2023); cited from earlier work
PeAAO [2] = target: T1, PeAAO; experiment: Steady-state bi-substrate kinetics of alcohol oxidation; format: biochemical; settings: alcohol substrate 3-Cl-4-methoxybenzyl alcohol, 50 mM phosphate, pH 6.0, 25 °C
Experimental: (§1) Bi-substrate kinetics were analyzed by concurrently varying the concentration of the aforementioned alcohols and electron acceptors. Oxygen assays were carried out in a screw-cap cuvette where the alcohol was equilibrated with the desired concentration of O2 by bubbling with the appropriate O2/N2 gas mixture (4%, 10%, 21%, 44%, and 100% O2) for 10 min. Alcohol oxidation was initiated by the addition of the enzyme and followed at 285 nm for 4-methoxybenzaldehyde production and 295 nm in the case of 3-Cl-4-methoxybenzaldehyde (Δε285 = 16,950 M^−1cm^−1 and Δε295 = 15,000 M^−1cm^−1, respectively) ([Ferreira et al., 2005]). […]. BQ solutions were prepared immediately prior to use and protected from the light to avoid photodegradation.
(§2) The initial rates for bi-substrate kinetics were fitted to Eq. 1 or Eq. 2, which describe sequential and ping-pong kinetic mechanisms, respectively. […]

BaAAO [3] = target: T2, BaAAO (Bjerkandera adusta, UniProt A0ABF7PQ87); experiment: as above; format: biochemical; settings: BaAAO, alcohol substrate 3-Cl-4-methoxybenzyl alcohol; 50 mM phosphate, pH 6.0, 25 °C
T2 sequence (A0ABF7PQ87 entry or part of it): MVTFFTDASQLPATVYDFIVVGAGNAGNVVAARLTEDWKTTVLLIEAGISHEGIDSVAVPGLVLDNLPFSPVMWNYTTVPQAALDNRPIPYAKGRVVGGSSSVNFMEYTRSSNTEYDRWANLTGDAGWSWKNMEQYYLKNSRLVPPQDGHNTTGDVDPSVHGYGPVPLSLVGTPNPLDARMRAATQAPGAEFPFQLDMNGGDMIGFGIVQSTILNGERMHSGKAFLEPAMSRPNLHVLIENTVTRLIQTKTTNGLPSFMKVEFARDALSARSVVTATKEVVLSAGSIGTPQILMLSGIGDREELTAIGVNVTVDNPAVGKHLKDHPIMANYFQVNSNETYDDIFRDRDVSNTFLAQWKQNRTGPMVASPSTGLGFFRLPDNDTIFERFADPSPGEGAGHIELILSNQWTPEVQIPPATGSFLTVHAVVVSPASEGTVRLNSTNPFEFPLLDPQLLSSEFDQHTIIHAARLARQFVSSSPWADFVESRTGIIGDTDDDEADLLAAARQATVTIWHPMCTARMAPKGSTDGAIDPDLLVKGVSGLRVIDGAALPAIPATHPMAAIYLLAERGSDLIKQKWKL
Experimental: as §1, §2

BaAAO [4] = target: T2, BaAAO; parameters: method as in Ferreira et al. (2023); settings: alcohol substrate 4-methoxybenzyl alcohol, 50 mM phosphate, pH 6.0, 25 °C, ref Ferreira et al. (2023); cited from earlier work
PeAAO [5] = target: T1, PeAAO; experiment: Stopped-flow oxidative half-reaction (flavin reoxidation by O2 or BQ); settings: for second phase of reoxidation (k ox B→C): two-step model
PeAAO [6] = target: T1, PeAAO; experiment: Redox state of the enzyme during turnover (stopped-flow); format: biochemical; settings: BQ as electron acceptor, regardless of the alcohol substrate, anaerobic, pH 6.0, 25 °C
Experimental: Experiments with O2 were performed with the alcohol under air-saturated conditions, while in the case of BQ, the alcohol was mixed with saturating concentration of BQ (300 µM) under anaerobic conditions. The spectral evolution of the enzymes during redox turnover was recorded between 350 and 700 nm.

PeAAO [7] = target: T1, PeAAO; experiment: Isothermal titration calorimetry with BQ; format: binding
Experimental: (§3) The interaction parameters of the enzymes with BQ were determined using an Auto-ITC200 high-sensitivity microcalorimeter (MicroCal, Malvern-Panalytical) thermostatted at 25 °C. Enzyme solutions (∼6 μM for BaAAO and 15 μM for PeAAO) were titrated with BQ (∼50 µM for BaAAO and ∼100 μM for PeAAO) in 50 mM Tris/HCl, pH 7.0. Up to 19 injections of 2 µL were programmed with enough time spacing for the signal to recover the baseline. The association constant (K a), the enthalpy change (ΔH) and the apparent stoichiometry (n) were estimated through non-linear regression of the experimental data using a model for one binding site implemented in Origin (Origin 7.0, OriginLab). The dissociation constant (K d), the Gibbs energy change (ΔG), and the entropy change (–TΔS) were obtained from basic thermodynamic relationships.

BaAAO [8] = target: T2, BaAAO; experiment: Isothermal titration calorimetry with BQ; format: binding
Experimental: as §3

BaAAO [9] = target: T2, BaAAO; experiment: Redox state of the enzyme during turnover (stopped-flow); format: biochemical; settings: BQ as electron acceptor, both alcohols, anaerobic, pH 6.0, 25 °C

T1 sequence (O94219 entry or part of it): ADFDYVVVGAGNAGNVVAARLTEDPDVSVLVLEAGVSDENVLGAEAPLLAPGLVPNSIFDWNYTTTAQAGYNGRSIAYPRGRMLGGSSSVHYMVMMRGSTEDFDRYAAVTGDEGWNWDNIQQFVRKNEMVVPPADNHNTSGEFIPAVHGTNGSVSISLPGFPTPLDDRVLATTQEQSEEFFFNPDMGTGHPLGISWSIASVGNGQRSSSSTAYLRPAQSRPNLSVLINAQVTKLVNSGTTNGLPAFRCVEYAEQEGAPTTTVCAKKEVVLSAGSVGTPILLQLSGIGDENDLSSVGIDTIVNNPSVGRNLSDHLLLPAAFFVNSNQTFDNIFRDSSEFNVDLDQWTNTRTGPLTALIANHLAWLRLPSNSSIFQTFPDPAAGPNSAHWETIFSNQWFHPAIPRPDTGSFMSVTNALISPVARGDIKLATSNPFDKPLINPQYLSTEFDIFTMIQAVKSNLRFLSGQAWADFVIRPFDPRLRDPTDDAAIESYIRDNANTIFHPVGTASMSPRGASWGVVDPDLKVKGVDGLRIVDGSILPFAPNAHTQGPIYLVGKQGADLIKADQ

For `O=C1C=CC(=O)C=C1` [BQ, 1,4-benzoquinone], the “k cat/K m(acceptor)” value (PeAAO [1]) is listed as 1,025 ± 154 s^−1mM^−1, the “k cat/K m(acceptor)” value (PeAAO [2]) is listed as 722 ± 64 s⁻¹ mM⁻¹ and the “k cat/K m(acceptor)” value (BaAAO [3]) is listed as 353 ± 65 s⁻¹ mM⁻¹. For the same compound, the “k cat/K m(acceptor)” value (BaAAO [4]) was 450 ± 70 s⁻¹ mM⁻¹, the “reverse rate constant (k rev), y-axis intercept of reoxidation” value (PeAAO [5]; PeAAO) was 55 s⁻¹ and the “second phase of reoxidation (k ox B→C)” value (PeAAO [5]; PeAAO reoxidized with 50 µM of BQ) was 5 to 10 s⁻¹. The “second phase of reoxidation (k ox B→C)” value (PeAAO [5]; PeAAO reoxidized with 100 µM of BQ) was 15 to 20 s⁻¹, the “first phase share of the total amplitude of reoxidation” value (PeAAO [5]; PeAAO, 50 µM of BQ) was “more than 50%” and the “first phase share of the total amplitude of reoxidation” value (PeAAO [5]; PeAAO, 100 µM of BQ) was greater than 85%. For the same compound, the “enzyme in the oxidized state during turnover” value (PeAAO [6]) was 85%–92%, the Kd (PeAAO [7]) was 27.1 µM and the ΔH (PeAAO [7]; PeAAO, ITC, 25 °C, 50 mM Tris/HCl, pH 7.0, error ±0.4) was -25.1 kcal/mol. The ΔG (PeAAO [7]; PeAAO, ITC, 25 °C, 50 mM Tris/HCl, pH 7.0, from K d) was -6.2 kcal/mol, the “–TΔS” value (PeAAO [7]; PeAAO, ITC, 25 °C, 50 mM Tris/HCl, pH 7.0, –TΔS = ΔG–ΔH) was 18.9 kcal/mol and the Kd (BaAAO [8]) was 50 nM. The “K d of alcohols higher than K d of BQ” value (BaAAO [8]; BaAAO) was ≤ 15,000 fold, the ΔH (BaAAO [8]; BaAAO, ITC, 25 °C, 50 mM Tris/HCl, pH 7.0, error ±0.4) was -21.4 kcal/mol and the ΔG (BaAAO [8]; BaAAO, ITC, 25 °C, 50 mM Tris/HCl, pH 7.0, from K d) was -9.9 kcal/mol. For the same compound, the “–TΔS” value (BaAAO [8]; BaAAO, ITC, 25 °C, 50 mM Tris/HCl, pH 7.0, –TΔS = ΔG–ΔH) was 11.5 kcal/mol and the “enzyme in the oxidized state during turnover” value (BaAAO [9]) was roughly 90%.
